According to patent publication US11806359B2 (priority 2020, dated 2023):

Columns and labels:
[1] = test system: HIV-1; conditions: cited from earlier work
[2] = test system: HCV H strain NS5B; conditions: cited from earlier work
[3] = test system: HEP C; conditions: cited from earlier work
[4] = test system: Dengue virus; conditions: Cheung et al. 2014; cited from earlier work
[5] = test system: adenovirus; assay: Antiviral activity against adenovirus; type: cell-based
[6] = test system: SARS-CoV-2; type: cell-based; conditions: FIG. 32
[7] = test system: HEP B; conditions: cited from earlier work
[8] = test system: ADV-8; conditions: cited from earlier work
[9] = test system: HSV-1; conditions: cited from earlier work
[10] = test system: HSV-2; conditions: cited from earlier work
[11] = test system: ENTV CVB1; conditions: cited from earlier work
[12] = test system: ENTV EV71; conditions: cited from earlier work
[13] = test system: ADV-3; conditions: cited from earlier work
[14] = test system: ADV-11; conditions: cited from earlier work

## CC1(C)CC[C@]2(C(=O)O)CC[C@]3(C)C(=CC[C@@H]4[C@@]5(C)CC[C@H](O)C(C)(C)[C@@H]5CC[C@]43C)[C@@H]2C1 [Oleanolic acid]
[1]
  anti-viral activity against HIV-1: some anti-viral activity
[2]
  anti-viral activity against HCV H strain NS5B: some anti-viral activity
[3]
  anti-viral activity against HEP C: some anti-viral activity

## CC(=O)O[C@H]1C[C@H](O[C@H]2[C@@H](O)C[C@H](O[C@H]3[C@@H](O)C[C@H](O[C@H]4CC[C@@]5(C)[C@H](CC[C@@H]6[C@@H]5C[C@@H](O)[C@]5(C)[C@@H](C7=CC(=O)OC7)CC[C@]65O)C4)O[C@@H]3C)O[C@@H]2C)O[C@H](C)[C@H]1O[C@@H]1O[C@H](CO)[C@@H](O)[C@H](O)[C@H]1O [lanatoside C]
[4]
  antiviral activity against Dengue virus: demonstrates antiviral activity against Dengue virus

## C[C@H]1O[C@@H](O[C@H]2[C@@H](O)C[C@H](O[C@H]3[C@@H](O)C[C@H](O[C@H]4CC[C@@]5(C)[C@H](CC[C@@H]6[C@@H]5C[C@@H](O)[C@]5(C)[C@@H](C7=CC(=O)OC7)CC[C@]65O)C4)O[C@@H]3C)O[C@@H]2C)C[C@H](O)[C@@H]1O [digoxin, reference compound]
[5]
  activity against adenovirus: inactive
[6]
  inhibition of viral replication: efficacy of digoxin against the virus

## C[C@H]1[C@H](C)CC[C@]2(C(=O)O)CC[C@]3(C)C(=CC[C@@H]4[C@@]5(C)CC[C@H](O)C(C)(C)[C@@H]5CC[C@]43C)[C@H]12 [Ursolic acid]
[7]
  anti-viral activity against HEP B: some anti-viral activity
[8]
  anti-viral activity against ADV-8: some anti-viral activity
[9]
  anti-viral activity against HSV-1: some anti-viral activity
[10]
  anti-viral activity against HSV-2: some anti-viral activity
[1]
  anti-viral activity against HIV-1: some anti-viral activity
[11]
  anti-viral activity against ENTV CVB1: some anti-viral activity
[12]
  anti-viral activity against ENTV EV71: some anti-viral activity
[2]
  anti-viral activity against HCV H strain NS5B: some anti-viral activity
[3]
  anti-viral activity against HEP C: some anti-viral activity
[13]
  anti-viral activity against ADV-3: some anti-viral activity
[14]
  anti-viral activity against ADV-11: some anti-viral activity
